“Also recorded” adds a separate entry of the source.
Experiments:
[1] = test system: pain or spasticity in patients suffering from spinal cord injury; assay: Administration of sildenafil citrate (50 mg VIAGRA tablet) to three male patients with spinal cord injury; format: in vivo, human; settings: for Effect of alleviating pain or spasticity caused by spinal cord injury (in words): patients with spinal cord injury (Patients 1 to 3), comparison with customary analgesics
Method: Sildenafil citrate was administered to three male patients of ages 30-73, who have sexual dysfunction and somatic pain. Patient 1: 7th thoracic vertebrae injury and complete paraplegia. […] Erectile dysfunction. Every day behavior: Wheel chair. Patient 2: 12th thoracic vertebrae injury and complete paraplegia. […] Erectile dysfunction. Every day behavior: Wheel chair. Patient 3: 6th cervical vertebrae injury and incomplete quadriplegia. They were constantly suffering from limb pain and spasticity. Erectile dysfunction. Every day behavior: Wheel chair. Patients 1 to 3 were dosed with a 50 mg tablet of […]® in the unit dosage form when feeling pain or spasticity.

peripheral nociception = settings: potentiated by sodium nitroprasside and L-arginine; cited from earlier work
[2] = test system: morphine-induced antinociception; settings: with morphine; cited from earlier work
nociception = settings: alone and with diclofenac; cited from earlier work
[3] = Patient 1, Th7 complete paraplegia, 50 mg tablet
[4] = Patient 1, Th7 complete paraplegia, 50 mg tablet, monocitrate
[5] = Patient 2, Th12 complete paraplegia, 50 mg tablet, monocitrate
[6] = Patient 3, C6 incomplete quadriplegia, 50 mg tablet, monocitrate

Compound: O=C(O)Cc1ccccc1Nc1c(Cl)cccc1Cl [diclofevac sodium]
- Effect of alleviating pain or spasticity caused by spinal cord injury (in words) [1]: no effects of alleviating pain or spasticity could be found
- Effect of alleviating pain or spasticity caused by spinal cord injury (in words) ([1]; listed as Voltaren): does not have any analgesic effects

Compound: CCCc1nn(C)c2c(=O)[nH]c(-c3cc(S(=O)(=O)N4CCN(C)CC4)ccc3OCC)nc12 [sildenafil, 5-[2-ethoxy-5-(4-methyl-1-piperazinylsulphonyl)phenyl]-1-methyl-3-n-propyl-1,6-dihydro-7H-pyrazolo[4,3-d]pyrimidin-7-one]
- Antinociception (peripheral nociception): induces antinociception
- Effect on morphine-induced antinociception [2]: significantly increases the morphine-induced antinociception
- Antinociceptive activity (nociception): produces antinociceptive activity, and increases that of diclofenac

Compound: CC(C(=O)O)c1ccc(CC2CCCC2=O)cc1 (stereo not shown) [loxoprofen sodium]
- Effect of alleviating pain or spasticity caused by spinal cord injury (in words) [1]: no effects of alleviating pain or spasticity could be found
- Effect of alleviating pain or spasticity caused by spinal cord injury (in words) ([1]; listed as Loxonin): does not have any analgesic effects

Compound: CCCc1nn(C)c2c(=O)[nH]c(-c3cc(S(=O)(=O)N4CCN(C)CC4)ccc3OCC)nc12.O=C(O)CC(O)(CC(=O)O)C(=O)O [sildenafil citrate, 1-[[3-(6,7-dihydro-1-methyl-7-oxo-3-propyl-1H-pyrazolo[4,3-d]pyrimidin-5-yl)-4-ethoxyphenyl]sulfonyl]-4-methylpiperazine monocitrate]
- Emerging Time of Effect After Administration [1, 3]: 30 min
- Time until side effect (light heat sensation) disappeared [1, 3]: two to three
- Duration of Effects [1, 4]: around half; also recorded: half day
- Improvement of Erectile Dysfunction [1, 4]: improved and Yes
- Side Effects [1, 4]: Light heat sensation
- Effects of alleviating pain or spasticity ([1]; Patient 2, Th12 complete paraplegia, 50 mg tablet): by about 30%
- Duration of Effects [1, 5]: around one; also recorded: about one day
- Emerging Time of Effect After Administration [1, 5]: around one; also recorded: one hour
- Improvement of Erectile Dysfunction [1, 5]: not improved and No
- Side Effects [1, 5]: No side effect was observed and No
- Duration of Effects [1, 6]: 5 to 6 h
- Improvement of Erectile Dysfunction [1, 6]: improved and No
- Side Effects [1, 6]: No side effect was observed and No
- Effect of alleviating pain or spasticity caused by spinal cord injury (in words) [1]: significantly alleviates the pain or spasticity
- Alleviation of the pain or spasticity ([1]; summary over Patients 1 to 3, 50 mg): 20 to 50%
